Like-named read-outs stand apart in the source and are kept apart here. Numbered stars: 1 amine (or outer) side, 2 acyl side, 3 side chain; on linkers, the order of the positions; unused ones are H or OH. Square brackets hold non-standard residues; d marks the D form. Peptide text beside a SMILES is read from it. * marks the point of attachment. ξ: configuration not given here. dNMeW = CN[C@H](Cc1c[nH]c2ccccc12)C(=O)O; d(β3hF) = N[C@@H](CC(=O)O)Cc1ccccc1; β3hF = N[C@H](CC(=O)O)Cc1ccccc1; NMeL = CN[C@@H](CC(C)C)C(=O)O; ξ2Thi = NC(Cc1cccs1)C(=O)O; 3Abz = Nc1cccc(C(=O)O)c1; Cbz = O=C(OCc1ccccc1)*; Boc = CC(C)(C)OC(=O)*; Aib = CC(C)(N)C(=O)O; CO = O=C([*:1])[*:2]; Piv = CC(C)(C)C(=O)*; NHPh = c1ccc(N*)cc1; OBn = c1ccc(CO*)cc1; NHtBu = CC(C)(C)N*; βAla = NCCC(=O)O; NEt2 = CCN(CC)*
Target: T1, endothelin receptor (membrane of smooth muscle tissue of porcine aorta) (Sus scrofa, UniProt Q29010)
T1 construct: from tissue; host or cells: porcine aorta smooth muscle, membrane fraction
T1 sequence (Q29010 21-427): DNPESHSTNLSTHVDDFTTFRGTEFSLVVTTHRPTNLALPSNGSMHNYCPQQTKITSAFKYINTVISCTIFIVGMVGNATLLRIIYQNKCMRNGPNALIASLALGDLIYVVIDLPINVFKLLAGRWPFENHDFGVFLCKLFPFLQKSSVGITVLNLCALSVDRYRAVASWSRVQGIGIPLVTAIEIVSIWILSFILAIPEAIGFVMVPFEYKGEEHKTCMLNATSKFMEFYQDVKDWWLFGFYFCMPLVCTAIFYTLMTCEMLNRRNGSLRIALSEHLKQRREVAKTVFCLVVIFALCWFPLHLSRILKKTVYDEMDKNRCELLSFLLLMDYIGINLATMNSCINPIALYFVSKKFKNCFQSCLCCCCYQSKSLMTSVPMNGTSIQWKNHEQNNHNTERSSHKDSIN
Test: Endothelin binding inhibition test (125I-endothelin-1, porcine aorta smooth muscle membrane)
Conditions: read-out: 125I-endothelin-1 binding inhibition; for inhibition at 1.1 µM: 1.1 μM test compound (no mark)
Method: The smooth muscle tissue of porcine aorta was homogenized in a buffer solution of 10 mM MOPS, pH 7.4, at 4° C. by a polytron. To the homogenate, sucrose was added to a concentration of 20%, and the mixture was centrifuged at 1,000×g for 15 minutes, and the supernatant was further centrifuged at 10,000×g for 15 minutes. The supernatant thereof was further centrifuged at 90,000×g for 40 minutes. The membrane precipitate thereby obtained was suspended in a buffer solution of 5 mM HEPES/Tris, pH 7.4, at a concentration of 25 mg/ml.
Then, 16 μl of this membrane suspension was added to 340 μl of 50 mM Tris/HCl buffer, pH 7.4, containing 10 μM calcium chloride, 10 μM magnesium chloride, 0.1 mM PMSF, 1 μM pepstatin A, 2 μM leupeptin, 1 mM 1,10-phenanthroline and 0.1% bovine serum albumin. To this suspension, 4 μl of (A) endothelin-1 (for nonspecific binding; 0.2 μM as the final concentration), (B) buffer solution A (for total control binding), or (C) a test compound (1.1 μM or 10 μM as the final concentration),was added. Further, to each suspension, 40 μl of ^125 I-endothelin-1 (12000-18000 cpm) was added. These mixtures were incubated at 25° C. for 4 hours, then subjected to filtration on a glass filter GF/C and then washed with 5 mM HEPES/Tris, pH 7.4, containing 0.3% bovine serum albumin. Then, the radioactivity trapped by the glass filter was measured, and the ^125 I-endothelin-1 binding inhibition D (%) at 1.1 μM or 10 μM of the test compound was determined by the following equation. [formula] Each test was performed in triplicate.
The test compounds are indicated by Compound Nos.

inhibition at 1.1 µM	Compound	other results
56%	CC(C)C[C@H](NC(=O)OC(C)(C)C)C(=O)N[C@H](Cc1c[nH]c2ccccc12)C(=O)N[C@H](CCCCNC(=O)OCc1ccccc1)C(=O)O [Compound 8] (Boc-Leu-[dW]-[dK](Cbz)-OH)	–
71%	CC(C)C[C@H](NC(=O)OC(C)(C)C)C(=O)N[C@H](Cc1c[nH]c2ccccc12)C(=O)NC(Cc1cccs1)C(=O)O (stereo partly drawn) [Compound 15] (Boc-Leu-[dW]-[ξ2Thi]-OH)	–
39%	CC(C)C[C@H](NC(=O)OC(C)(C)C)C(=O)N[C@H](Cc1c[nH]c2ccccc12)C(=O)N[C@H](CC(=O)O)Cc1ccccc1 [Compound 21] (Boc-Leu-[dW]-[β3hF]-OH)	–
70%	CC(C)C[C@H](NC(=O)Nc1ccccc1)C(=O)N[C@H](Cc1c[nH]c2ccccc12)C(=O)NCCC(=O)O [Compound 84] ({NHPh-CO}-Leu-[dW]-[βAla]-OH)	–
46%	CC(C)C[C@H](NC(=O)Nc1ccccc1)C(=O)N[C@H](Cc1c[nH]c2ccccc12)C(=O)NCC(=O)O [Compound 90] ({NHPh-CO}-Leu-[dW]-Gly-OH)	–
65%	CC(C)C[C@H](NC(=O)OC(C)(C)C)C(=O)N[C@H](Cc1c[nH]c2ccccc12)C(=O)N[C@H](CC(=O)O)C(N)=O [Compound 36] (Boc-Leu-[dW]-[dD]-NH2)	–
65%	CC(C)C[C@H](NC(=O)OC(C)(C)C)C(=O)N[C@H](Cc1c[nH]c2ccccc12)C(=O)N[C@H](C)C(=O)O [Compound 41] (Boc-Leu-[dW]-[dA]-OH)	–
83%	CC(C)C[C@H](NC(=O)OC(C)(C)C)C(=O)N[C@H](Cc1c[nH]c2ccccc12)C(=O)N[C@H](Cc1c[nH]c2ccccc12)C(=O)O [Compound 2] (Boc-Leu-[dW]-[dW]-OH)	–
31%	CC(C)C[C@H](NC(=O)OC(C)(C)C)C(=O)N[C@H](Cc1c[nH]c2ccccc12)C(=O)Nc1cccc(C(=O)O)c1 [Compound 12] (Boc-Leu-[dW]-[3Abz]-OH)	–
69%	CC(C)C[C@H](NC(=O)OC(C)(C)C)C(=O)N[C@H](Cc1c[nH]c2ccccc12)C(=O)NCCC(=O)O [Compound 29] (Boc-Leu-[dW]-[βAla]-OH)	–
74%	CC(C)C[C@H](NC(=O)OC(C)(C)C)C(=O)N[C@H](Cc1c[nH]c2ccccc12)C(=O)NC(Cc1nccs1)C(=O)O (stereo partly shown) [Compound 16]	–
44%	CC(C)C[C@H](NC(=O)OC(C)(C)C)C(=O)N[C@H](Cc1c[nH]c2ccccc12)C(=O)N[C@@H](CC(=O)O)Cc1ccccc1 [Compound 20] (Boc-Leu-[dW]-[d(β3hF)]-OH)	–
35%	CC(C)C[C@H](NC(=O)OC(C)(C)C)C(=O)N[C@H](Cc1c[nH]c2ccccc12)C(=O)N[C@H](CC(=O)OCc1ccccc1)C(N)=O [Compound 35] (Boc-Leu-[dW]-[dD](OBn)-NH2)	–

Continued, molecule first:

Compound	inhibition at 1.1 µM	other results
CC(C)C[C@H](NC(=O)OC(C)C)C(=O)N[C@H](Cc1c[nH]c2ccccc12)C(=O)NCCC(=O)O [Compound 71]	29%	–
CC(C)C[C@H](NC(=O)N1CCCCCC1)C(=O)N[C@H](Cc1cn(C=O)c2ccccc12)C(=O)N[C@H](C)CS(=O)(=O)O [Compound 162]	86%	–
CC(C)C[C@H](NC(=O)OC(C)(C)C)C(=O)N[C@H](Cc1c[nH]c2ccccc12)C(=O)N[C@H](Cc1ccccc1)CS(=O)(=O)O [Compound 26]	–	inhibition at 10 µM (10 μM test compound (marked *)): 36%
CC(C)C[C@H](NC(=O)NC(C)(C)C)C(=O)N[C@H](Cc1c[nH]c2ccccc12)C(=O)NCCC(=O)O [Compound 85] ({NHtBu-CO}-Leu-[dW]-[βAla]-OH)	77%	–
COP(=O)(OC)n1cc(C[C@@H](NC(=O)[C@H](CC(C)C)NC(=O)N2CCCCCC2)C(=O)N[C@H](Cc2c[nH]c3ccccc23)C(=O)O)c2ccccc21 [Compound 191]	–	inhibition at 10 µM: 74%
CC(C)C[C@H](NC(=O)OC(C)(C)C)C(=O)N(C)[C@H](Cc1c[nH]c2ccccc12)C(=O)NCCC(=O)O [Compound 32] (Boc-Leu-[dNMeW]-[βAla]-OH)	–	inhibition at 10 µM (10 μM test compound (marked *)): 32%
CC(C)C[C@H](NC(=O)N1CCCCCC1)C(=O)N[C@H](Cc1cn(C=O)c2ccccc12)C(=O)N[C@H](C)CC(=O)O [Compound 132]	85%	–
CC(C)C[C@H](NC(=O)c1cccs1)C(=O)N[C@H](Cc1c[nH]c2ccccc12)C(=O)NCCC(=O)O [Compound 55]	54%	–
CC(C)C[C@H](NC(=O)N1CCCCCC1)C(=O)N[C@H](Cc1c[nH]c2ccccc12)C(=O)N[C@H](C)CC(=O)O [Compound 52]	84%	–
CC(C)C[C@H](NC(=O)OC(C)(C)C)C(=O)N[C@H](Cc1c[nH]c2ccccc12)C(=O)NNCC(=O)O [Compound 148]	–	inhibition at 10 µM (10 μM test compound (marked *)): 82%
CNC(=O)CCNC(=O)[C@@H](Cc1c[nH]c2ccccc12)NC(=O)[C@H](CC(C)C)NC(=O)N1CCCCCC1 [Compound 134]	32%	–
CC(C)C[C@H](NC(=O)N1CCCCCC1)C(=O)N[C@H](Cc1c[nH]c2ccccc12)C(=O)N[C@H](Cc1c[nH]cn1)C(=O)O [Compound 48]	82%	–
CC(C)C[C@H](NC(=O)N1CCCCCC1)C(=O)N[C@H](Cc1c[nH]c2ccccc12)C(=O)NN1CCC[C@@H]1C(=O)O [Compound 163]	76%	–
CC(C)C[C@H](NC(=O)OC(C)(C)C)C(=O)N[C@H](Cc1c[nH]c2ccccc12)C(=O)N[C@@H](CC(=O)OCc1ccccc1)C(N)=O [Compound 37] (Boc-Leu-[dW]-Asp(OBn)-NH2)	–	inhibition at 10 µM (10 μM test compound (marked *)): 29%
CC(C)C[C@H](NC(=O)OC(C)(C)C)C(=O)N[C@H](Cc1c[nH]c2ccccc12)C(=O)NCC(O)C(=O)O (stereo partly shown) [Compound 17]	38%	–
COC(CNC(=O)[C@@H](Cc1c[nH]c2ccccc12)NC(=O)[C@H](CC(C)C)NC(=O)OC(C)(C)C)C(=O)O (stereo partly shown) [Compound 146]	–	inhibition at 10 µM (10 μM test compound (marked *)): 70%
CCN(CC)C(=O)N[C@@H](CC(C)C)C(=O)N[C@H](Cc1c[nH]c2ccccc12)C(=O)NCCC(=O)O [Compound 77] ({NEt2-CO}-Leu-[dW]-[βAla]-OH)	47%	–
CC(C)C[C@H](NC(=O)NN1CCCC1)C(=O)N[C@H](Cc1c[nH]c2ccccc12)C(=O)NCCC(=O)O [Compound 152]	–	inhibition at 10 µM (10 μM test compound (marked *)): 58%
COC(=O)C(C(=O)N[C@@H](CC(C)C)C(=O)N[C@H](Cc1c[nH]c2ccccc12)C(=O)NCCC(=O)O)=C1SC=CS1 [Compound 66]	77%	–
CC(C)C[C@H](NC(=O)N1CCCCCC1)C(=O)N[C@H](Cc1c[nH]c2ccccc12)C(=O)NCCC(=O)NS(C)(=O)=O [Compound 158]	57%	–
CC(C)C[C@H](NC(=O)N1CCCCCC1)C(=O)N[C@H](Cc1c[nH]c2ccccc12)C(=O)NCCS(=O)(=O)O [Compound 53]	86%	–
CC(C)C[C@H](NC(=O)C(C)(C)C)C(=O)N[C@H](Cc1c[nH]c2ccccc12)C(=O)NCCC(=O)O [Compound 69] (Piv-Leu-[dW]-[βAla]-OH)	–	inhibition at 10 µM (10 μM test compound (marked *)): 71%
CC(C)C[C@@H](C(=O)N[C@H](Cc1c[nH]c2ccccc12)C(=O)NCCC(=O)O)N(C)C(=O)OC(C)(C)C [Compound 30] (Boc-[NMeL]-[dW]-[βAla]-OH)	44%	–
CC(C)C[C@H](NC(=O)OC(C)(C)C)C(=O)N[C@H](Cc1c[nH]c2ccccc12)C(=O)NC(C)(C)C(=O)O [Compound 13] (Boc-Leu-[dW]-[Aib]-OH)	39%	–
CC(C)C[C@H](NC(=O)OC(C)(C)C)C(=O)N[C@H](Cc1c[nH]c2ccccc12)C(=O)N[C@@H](CC(=O)O)C(=O)Nc1ccccc1 [Compound 45] (Boc-Leu-[dW]-Asp-NHPh)	–	inhibition at 10 µM (10 μM test compound (marked *)): 39%
CC(C)C[C@H](NC(=O)N(C)C)C(=O)N[C@H](Cc1c[nH]c2ccccc12)C(=O)NCCC(=O)O [Compound 73] ({NMe2-CO}-Leu-[dW]-[βAla]-OH)	–	inhibition at 10 µM (10 μM test compound (marked *)): 61%
CC(C)C[C@H](NC(=O)N1CCCCCC1)C(=O)N[C@H](Cc1c[nH]c2ccccc12)C(=O)NCCC(N)=O [Compound 135]	39%	–
CC(C)C[C@H](NC(=O)N(C(C)C)C(C)C)C(=O)N[C@H](Cc1c[nH]c2ccccc12)C(=O)NCCC(=O)O [Compound 119]	81%	–
CC(C)C[C@H](NC(=O)OC(C)(C)C)C(=O)N[C@H](Cc1c[nH]c2ccccc12)C(=O)NN(CC(=O)O)CC(=O)O [Compound 147]	–	inhibition at 10 µM (10 μM test compound (marked *)): 57%
CC(C)C[C@H](NC(=O)NC12CC3CC(CC(C3)C1)C2)C(=O)N[C@H](Cc1c[nH]c2ccccc12)C(=O)NCCC(=O)O [Compound 113]	69%	–
